Test results as given in ChEMBL document CHEMBL1123161, “Synthesis and evaluation of 4-(substituted thio)-4-androstene-3,17-dione derivatives as potential aromatase inhibitors” (J Med Chem, 1986).

What was measured:
Aromatase [1] = target: T1, Aromatase (Homo sapiens, UniProt P11511); test: Evaluated for its competitive inhibitory activity against Cytochrome P450 19A1 with the use of human placental microsomal preparation; set-up: species or system Placenta; conditions: read-out: Ki app
T1 sequence (P11511 whole entry): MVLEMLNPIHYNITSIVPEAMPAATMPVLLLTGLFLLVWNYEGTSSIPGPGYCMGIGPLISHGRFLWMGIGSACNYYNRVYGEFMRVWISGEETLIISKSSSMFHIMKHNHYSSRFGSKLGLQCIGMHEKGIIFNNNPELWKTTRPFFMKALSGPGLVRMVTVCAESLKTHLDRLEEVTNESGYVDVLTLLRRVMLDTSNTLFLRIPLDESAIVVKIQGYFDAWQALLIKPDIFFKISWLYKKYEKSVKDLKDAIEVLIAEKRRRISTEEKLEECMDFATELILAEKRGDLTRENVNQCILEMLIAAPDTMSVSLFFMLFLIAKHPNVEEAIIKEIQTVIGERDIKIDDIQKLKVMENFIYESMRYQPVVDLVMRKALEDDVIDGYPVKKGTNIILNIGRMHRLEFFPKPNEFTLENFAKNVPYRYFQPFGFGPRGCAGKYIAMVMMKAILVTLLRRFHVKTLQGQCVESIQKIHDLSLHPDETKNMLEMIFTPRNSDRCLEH

Aromatase [2] = target: T1, Aromatase
Description: (§1) Inhibition of Cytochrome P450 19A1 at the concentration of 0.75 uM

Aromatase [3] = target: T1, Aromatase; remark: listed apart in the source
Description: (§2) Inhibition of Cytochrome P450 19A1 at the concentration of 1.5 uM

Aromatase [4] = target: T1, Aromatase; remark: listed apart in the source
Description: (§3) Inhibition of Cytochrome P450 19A1 at the concentration of 0.25 uM

Aromatase [5] = target: T1, Aromatase; conditions: 0.25 µM
Description: as §3

Aromatase [6] = target: T1, Aromatase; conditions: 0.75 µM
Description: as §1

Aromatase [7] = target: T1, Aromatase; conditions: 1.5 µM
Description: as §2

Structure (SMILES) | Ki (Aromatase [1]) [nM] | inhibition at 0.75 µM (Aromatase [2]) [%] | inhibition at 1.5 µM (Aromatase [3]) [%] | inhibition at 0.25 µM (Aromatase [4]) [%] | Inhibition (Aromatase [5]) [%] | Inhibition (Aromatase [6]) [%] | Inhibition (Aromatase [7]) [%]
CC(=O)SC1=C2CCC3C4CCC(=O)C4(C)CCC3C2(C)CCC1=O (stereo not drawn) | 73 | 42 | 58 | 19 |  |  | 
CCSC1=C2CCC3C4CCC(=O)C4(C)CCC3C2(C)CCC1=O (stereo not drawn) | 41 | 45 | 52 | 26 |  |  | 
CCCSC1=C2CCC3C4CCC(=O)C4(C)CCC3C2(C)CCC1=O (stereo not drawn) | 65 | 42 | 49 | 25 |  |  | 
CCCCCSC1=C2CCC3C4CCC(=O)C4(C)CCC3C2(C)CCC1=O (stereo not drawn) |  | 4 | 8 | 2 |  |  | 
Cc1ccc(SC2=C3CCC4C5CCC(=O)C5(C)CCC4C3(C)CCC2=O)cc1 (stereo not drawn) |  | 27 | 31 | 14 |  |  | 
CC12CCC3C(CCC4=C(SCc5ccccc5)C(=O)CCC43C)C1CCC2=O (stereo not drawn) |  | 5 | 8 | 2 |  |  | 
CC(=O)OC1=C2CCC3C4CCC(=O)C4(C)CCC3C2(C)CCC1=O (stereo not drawn) |  | 70 | 78 | 38 |  |  | 
CC12CCC3C(CCC4=C(Sc5ccccc5)C(=O)CCC43C)C1CCC2=O (stereo not drawn) | 36 | 55 | 68 | 36 |  |  | 
CC12CCC3C(CCC4=C(Sc5ccc([N+](=O)[O-])cc5)C(=O)CCC43C)C1CCC2=O (stereo not drawn) |  | 0 | 0 | 0 |  |  | 
CCCCSC1=C2CCC3C4CCC(=O)C4(C)CCC3C2(C)CCC1=O (stereo not drawn) |  | 12 | 18 | 8 |  |  | 
CSC1=C2CCC3C4CCC(=O)C4(C)CCC3C2(C)CCC1=O (stereo not drawn) | 59 | 61 | 74 | 39 |  |  | 
CC12CCC3C(CCC4=C(S)C(=O)CCC43C)C1CCC2=O (stereo not drawn) |  | 52 | 63 | 31 |  |  | 
CC12CCC3C(CCC4=C(Sc5ccc(Br)cc5)C(=O)CCC43C)C1CCC2=O (stereo not drawn) |  | 4 | 6 | 0 |  |  | 
COc1ccc(SC2=C3CCC4C5CCC(=O)C5(C)CCC4C3(C)CCC2=O)cc1 (stereo not drawn) |  | 0 | 2 | 0 |  |  | 
CC12CCC3C(CCC4=C(Sc5ccc(N)cc5)C(=O)CCC43C)C1CCC2=O (stereo in doubt) | 18 |  |  |  | 46 | 70 | 82
CC12CCC3C(CCC4=C(Sc5ccc(N)cc5)C(=O)CCC43C)C1CCC2=O (stereo in doubt; 14) |  |  |  |  | 0 | 0 | 0
C[C@]12CCC(=O)C(O)=C1CC[C@@H]1[C@@H]2CC[C@]2(C)C(=O)CC[C@@H]12 [FORMESTANE] | 54 | 74 | 84 | 49 |  |  | 
